Laboratory results published in BigSolDB 2.1.

SMILES: O=[N+]([O-])c1cn[nH]c1[N+](=O)[O-]
- solubility (mole fraction) (in 2-butanone, 283.15 K): 0.429
- solubility (mole fraction) (in 2-butanone, 288.15 K): 0.45
- solubility (mole fraction) (in 2-butanone, 293.15 K): 0.476
- solubility (mole fraction) (in 2-butanone, 298.15 K): 0.498
- solubility (mole fraction) (in 2-butanone, 303.15 K): 0.525
- solubility (mole fraction) (in 2-butanone, 308.15 K): 0.554
- solubility (mole fraction) (in 2-butanone, 313.15 K): 0.578
- solubility (mole fraction) (in 2-butanone, 318.15 K): 0.602
- solubility (mole fraction) (in 2-butanone, 323.15 K): 0.645
- solubility (mole fraction) (in THF, 283.15 K): 0.51
- solubility (mole fraction) (in THF, 288.15 K): 0.525
- solubility (mole fraction) (in THF, 293.15 K): 0.598
- solubility (mole fraction) (in THF, 298.15 K): 0.631
- solubility (mole fraction) (in THF, 303.15 K): 0.684
- solubility (mole fraction) (in THF, 308.15 K): 0.735
- solubility (mole fraction) (in THF, 313.15 K): 0.792
- solubility (mole fraction) (in THF, 318.15 K): 0.837
- solubility (mole fraction) (in THF, 323.15 K): 0.886
- solubility (mole fraction) (in acetonitrile, 283.15 K): 0.0745
- solubility (mole fraction) (in acetonitrile, 288.15 K): 0.0772
- solubility (mole fraction) (in acetonitrile, 293.15 K): 0.085
- solubility (mole fraction) (in acetonitrile, 298.15 K): 0.0912
- solubility (mole fraction) (in acetonitrile, 303.15 K): 0.0968
- solubility (mole fraction) (in acetonitrile, 308.15 K): 0.105
- solubility (mole fraction) (in acetonitrile, 313.15 K): 0.11
- solubility (mole fraction) (in acetonitrile, 318.15 K): 0.12
- solubility (mole fraction) (in acetonitrile, 323.15 K): 0.133
- solubility (mole fraction) (in chloroform, 283.15 K): 0.00071
- solubility (mole fraction) (in chloroform, 288.15 K): 0.00094
- solubility (mole fraction) (in chloroform, 293.15 K): 0.00113
- solubility (mole fraction) (in chloroform, 298.15 K): 0.00152
- solubility (mole fraction) (in chloroform, 303.15 K): 0.00211
- solubility (mole fraction) (in chloroform, 308.15 K): 0.00277
- solubility (mole fraction) (in chloroform, 313.15 K): 0.0035
- solubility (mole fraction) (in chloroform, 318.15 K): 0.00476
- solubility (mole fraction) (in chloroform, 323.15 K): 0.00693
- solubility (mole fraction) (in epichlorohydrin, 283.15 K): 0.0361
- solubility (mole fraction) (in epichlorohydrin, 288.15 K): 0.0395
- solubility (mole fraction) (in epichlorohydrin, 293.15 K): 0.0422
- solubility (mole fraction) (in epichlorohydrin, 298.15 K): 0.0467
- solubility (mole fraction) (in epichlorohydrin, 303.15 K): 0.0498
- solubility (mole fraction) (in epichlorohydrin, 308.15 K): 0.0536
- solubility (mole fraction) (in epichlorohydrin, 313.15 K): 0.0582
- solubility (mole fraction) (in epichlorohydrin, 318.15 K): 0.0634
- solubility (mole fraction) (in epichlorohydrin, 323.15 K): 0.0715
- solubility (mole fraction) (in ethyl acetate, 283.15 K): 0.0671
- solubility (mole fraction) (in ethyl acetate, 288.15 K): 0.0791
- solubility (mole fraction) (in ethyl acetate, 293.15 K): 0.0913
- solubility (mole fraction) (in ethyl acetate, 298.15 K): 0.103
- solubility (mole fraction) (in ethyl acetate, 303.15 K): 0.125
- solubility (mole fraction) (in ethyl acetate, 308.15 K): 0.146
- solubility (mole fraction) (in ethyl acetate, 313.15 K): 0.163
- solubility (mole fraction) (in ethyl acetate, 318.15 K): 0.193
- solubility (mole fraction) (in ethyl acetate, 323.15 K): 0.224
- solubility (mole fraction) (in isobutanol, 283.15 K): 0.234
- solubility (mole fraction) (in isobutanol, 288.15 K): 0.264
- solubility (mole fraction) (in isobutanol, 293.15 K): 0.265
- solubility (mole fraction) (in isobutanol, 298.15 K): 0.329
- solubility (mole fraction) (in isobutanol, 303.15 K): 0.355
- solubility (mole fraction) (in isobutanol, 308.15 K): 0.391
- solubility (mole fraction) (in isobutanol, 313.15 K): 0.438
- solubility (mole fraction) (in isobutanol, 318.15 K): 0.486
- solubility (mole fraction) (in isobutanol, 323.15 K): 0.539
- solubility (mole fraction) (in isopentanol, 283.15 K): 0.228
- solubility (mole fraction) (in isopentanol, 288.15 K): 0.258
- solubility (mole fraction) (in isopentanol, 293.15 K): 0.29
- solubility (mole fraction) (in isopentanol, 298.15 K): 0.315
- solubility (mole fraction) (in isopentanol, 303.15 K): 0.351
- solubility (mole fraction) (in isopentanol, 308.15 K): 0.376
- solubility (mole fraction) (in isopentanol, 313.15 K): 0.408
- solubility (mole fraction) (in isopentanol, 318.15 K): 0.46
- solubility (mole fraction) (in isopentanol, 323.15 K): 0.508
- solubility (mole fraction) (in n-pentanol, 283.15 K): 0.266
- solubility (mole fraction) (in n-pentanol, 288.15 K): 0.315
- solubility (mole fraction) (in n-pentanol, 293.15 K): 0.365
- solubility (mole fraction) (in n-pentanol, 298.15 K): 0.412
- solubility (mole fraction) (in n-pentanol, 303.15 K): 0.465
- solubility (mole fraction) (in n-pentanol, 308.15 K): 0.513
- solubility (mole fraction) (in n-pentanol, 313.15 K): 0.552
- solubility (mole fraction) (in n-pentanol, 318.15 K): 0.631
- solubility (mole fraction) (in n-pentanol, 323.15 K): 0.679
- solubility (mole fraction) (in n-propanol, 283.15 K): 0.317
- solubility (mole fraction) (in n-propanol, 288.15 K): 0.361
- solubility (mole fraction) (in n-propanol, 293.15 K): 0.412
- solubility (mole fraction) (in n-propanol, 298.15 K): 0.468
- solubility (mole fraction) (in n-propanol, 303.15 K): 0.516
- solubility (mole fraction) (in n-propanol, 308.15 K): 0.567
- solubility (mole fraction) (in n-propanol, 313.15 K): 0.612
- solubility (mole fraction) (in n-propanol, 318.15 K): 0.7
- solubility (mole fraction) (in n-propanol, 323.15 K): 0.803
- solubility (mole fraction) (in water, 283.15 K): 0.002
- solubility (mole fraction) (in water, 288.15 K): 0.0032
- solubility (mole fraction) (in water, 293.15 K): 0.00414
- solubility (mole fraction) (in water, 298.15 K): 0.00529
- solubility (mole fraction) (in water, 303.15 K): 0.00738
- solubility (mole fraction) (in water, 308.15 K): 0.00924
- solubility (mole fraction) (in water, 313.15 K): 0.0111
- solubility (mole fraction) (in water, 318.15 K): 0.0136
- solubility (mole fraction) (in water, 323.15 K): 0.0169
